{
  "source": "patent US20130287890A1",
  "about": "“INHIBITOR OF THE PRODUCTION OF ADVANCED GLYCATION END PRODUCTS” (UENO FINE CHEMICALS INDUSTRY, LTD., priority 2012, published 2013)",
  "origin": "cited, not measured here",
  "settings": "background art; cited from earlier work",
  "data": [
    {"smiles": "N=C(N)NN", "note": "[Aminoguanidine, aminoguanidine]", "values": [
      {"measurement": "adverse drug reactions", "value": "hepatic impairment"}
    ]}
  ]
}
